Source: the supplement of paper PMC10307832

Experiments:
Assay in all cases: relative viability (nuclei count vs DMSO), 5 days (fraction); higher = more cells survive
[1] = compound: Cc1ccc(C(=O)Nc2cccc(C(F)(F)F)c2)cc1Nc1cncc(C(N)=O)c1 [ALW-II-49-7] + CC(=O)Nc1cccc(-n2c(=O)n(C3CC3)c(=O)c3c(Nc4ccc(I)cc4F)n(C)c(=O)c(C)c32)c1 [Trametinib] (partner 0.02 µM)
Outline: (§1)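 Medians of duplicate plates are given as relative viability. That measure is the nuclei count in treated wells divided by the count in vehicle wells. Counts were taken on 4× images of lung cancer cell lines in 1536-well plates, 5 days after pin-tool dosing the day after seeding with one drug alone or a fixed anchor-drug dose plus five library-drug doses (not always all listed) in √10 steps.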

[2] = compound: Cc1ccc(C(=O)Nc2cccc(C(F)(F)F)c2)cc1Nc1cncc(C(N)=O)c1 [ALW-II-49-7] + N=C(N)NC(=N)NCCc1ccccc1 [Phenformin] (partner 250 µM)
Outline: as §1

[3] = compound: Cc1ccc(C(=O)Nc2cccc(C(F)(F)F)c2)cc1Nc1cncc(C(N)=O)c1 [ALW-II-49-7] + Nc1nc2[nH]cc(CCc3ccc(C(=O)N[C@@H](CCC(=O)O)C(=O)O)cc3)c2c(=O)[nH]1 [Pemetrexed] (partner 0.2 µM)
Outline: as §1

[4] = compound: Cc1nc(Nc2ncc(C(=O)Nc3c(C)cccc3Cl)s2)cc(N2CCN(CCO)CC2)n1 [Dasatinib] + Nc1ncn([C@H]2C[C@H](O)[C@@H](CO)O2)c(=O)n1 [Decitabine] (partner 2 µM)
Outline: as §1

| Cell Line | relative viability ([1]; first compound 0.08 µM) | relative viability ([1]; first compound 0.253 µM) | relative viability ([1]; first compound 0.8 µM) | relative viability ([1]; first compound 2.53 µM) | relative viability ([1]; first compound 8 µM) | relative viability ([2]; first compound 0.08 µM) | relative viability ([2]; first compound 0.253 µM) | relative viability ([2]; first compound 0.8 µM) | relative viability ([2]; first compound 2.53 µM) | relative viability ([2]; first compound 8 µM) | relative viability ([3]; first compound 0.08 µM) | relative viability ([3]; first compound 0.253 µM) | relative viability ([3]; first compound 0.8 µM) | relative viability ([3]; first compound 2.53 µM) | relative viability ([3]; first compound 8 µM) | relative viability ([4]; first compound 0.005 µM) | relative viability ([4]; first compound 0.01581 µM) | relative viability ([4]; first compound 0.05 µM) | relative viability ([4]; first compound 0.1581 µM) | relative viability ([4]; first compound 0.5 µM) |
| --- | --- | --- | --- | --- | --- | --- | --- | --- | --- | --- | --- | --- | --- | --- | --- | --- | --- | --- | --- | --- |
| NCI-H2023 | 0.468 | 0.557 | 0.69 | 0.503 | 0.53 | 0.384 | 0.467 | 0.403 | 0.395 | 0.319 | 0.235 | 0.23 | 0.237 | 0.214 | 0.242 | 0.262 | 0.226 | 0.216 | 0.214 | 0.209 |
| NCI-H1666 | 0.864 | 0.927 | 0.865 | 0.948 | 0.803 | 0.565 | 0.568 | 0.58 | 0.703 | 0.653 | 0.783 | 0.944 | 0.831 | 0.847 | 0.785 | 0.725 | 0.691 | 0.73 | 0.656 | 0.521 |
| NCI-H1975 | 0.384 | 0.581 | 0.288 | 0.367 | 0.311 | 0.393 | 0.461 | 0.39 | 0.415 | 0.412 | 0.312 | 0.306 | 0.266 | 0.296 | 0.244 | 0.377 | 0.384 | 0.368 | 0.266 | 0.224 |
| NCI-H2170 | 0.925 | 0.937 | 0.977 | 0.924 | 0.854 | 0.411 | 0.435 | 0.432 | 0.387 | 0.346 | 0.283 | 0.275 | 0.244 | 0.302 | 0.285 | 0.439 | 0.422 | 0.392 | 0.344 | 0.225 |
| NCI-H1355 | 0.371 | 0.467 | 0.474 | 0.384 | 0.438 | 0.457 | 0.4 | 0.4 | 0.443 | 0.379 | 0.964 | 1.13 | 1.01 | 1.04 | 1.07 | 0.355 | 0.319 | 0.354 | 0.343 | 0.272 |
| NCI-H1648 | 0.522 | 0.317 | 0.462 | 0.347 | 0.449 |  |  |  |  |  | 0.579 | 0.934 | 0.802 | 0.52 | 0.738 | 0.494 | 0.477 | 0.506 | 0.457 | 0.241 |
| A549 |  |  |  |  |  | 0.19 | 0.125 | 0.117 | 0.0978 | 0.201 |  |  |  |  |  | 0.222 | 0.236 | 0.307 | 0.173 | 0.178 |
| SK-MES-1 | 0.573 | 0.628 | 0.562 | 0.6 | 0.447 | 0.644 | 0.637 | 0.625 | 0.577 | 0.512 | 0.888 | 0.964 | 0.916 | 0.867 | 0.686 | 0.409 | 0.364 | 0.265 | 0.169 | 0.136 |
| EKVX | 0.266 | 0.347 | 0.482 | 0.317 | 0.298 | 0.233 | 0.229 | 0.215 | 0.261 | 0.224 | 0.396 | 0.323 | 0.405 | 0.336 | 0.414 | 0.307 | 0.291 | 0.304 | 0.187 | 0.146 |
| RERF-LC-KJ | 0.867 | 0.923 | 0.816 | 0.749 | 0.833 | 0.419 | 0.456 | 0.414 | 0.373 | 0.397 | 0.475 | 0.518 | 0.472 | 0.439 | 0.478 | 0.701 | 0.621 | 0.552 | 0.629 | 0.627 |
| NCI-H1755 | 0.724 | 0.879 | 0.786 | 0.747 | 0.681 | 0.584 | 0.627 | 0.612 | 0.55 | 0.405 | 0.456 | 0.48 | 0.4 | 0.416 | 0.403 | 0.682 | 0.641 | 0.602 | 0.509 | 0.323 |
| NCI-H661 | 0.529 | 0.606 | 0.521 | 0.567 | 0.53 | 0.28 | 0.282 | 0.278 | 0.295 | 0.297 | 0.974 | 0.968 | 0.944 | 0.929 | 0.959 | 0.566 | 0.528 | 0.518 | 0.394 | 0.404 |
| LOU-NH91 | 0.755 | 0.787 | 0.804 |  | 0.706 | 0.698 | 0.671 | 0.621 | 0.596 | 0.633 | 0.298 | 0.361 | 0.35 |  | 0.338 | 0.83 | 0.819 | 0.743 | 0.66 | 0.421 |
| LXF-289 | 0.604 | 0.715 | 0.681 | 0.67 | 0.626 | 0.515 | 0.554 | 0.556 | 0.536 | 0.526 | 0.822 | 0.869 | 0.958 | 1.05 | 0.959 | 0.398 | 0.336 | 0.31 | 0.358 | 0.142 |
| HCC-44 | 1.08 | 0.994 | 1.03 | 1.09 | 1.26 | 0.261 | 0.203 | 0.231 | 0.277 | 0.211 | 0.683 | 0.662 | 0.617 | 0.664 | 0.673 | 1.04 | 0.915 | 1.04 | 0.886 | 0.624 |
| HARA | 1.02 | 0.513 | 0.794 | 0.64 | 0.675 | 0.452 | 0.476 | 0.345 | 0.461 | 0.482 | 0.235 | 0.288 | 0.247 | 0.277 | 0.218 | 0.578 | 0.47 | 0.549 | 0.305 | 0.221 |
| 201T | 0.718 | 0.791 | 0.691 | 0.715 | 0.777 | 0.43 | 0.456 | 0.456 | 0.477 | 0.414 | 0.321 | 0.365 | 0.287 | 0.346 | 0.381 | 0.834 | 0.795 | 0.802 | 0.646 | 0.416 |
